Data as given in US10717733B2, “Haloallylamine indole and azaindole derivative inhibitors of lysyl oxidases and uses thereof” (PHARMAXIS LTD., priority 2016, dated 2020).
Structures can show the parent of a compound that is named as a salt.

Assays:
Type in all cases: biochemical
[1] = target: Bovine LOX (Bos taurus (Bovine), UniProt P33072); assay: LOX inhibition, peroxidase-coupled Amplex Red amine oxidase assay; details: 30 min preincubation at 37° C., putrescine substrate
Outline: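 Bovine LOX in 1.2 M urea, 50 mM sodium borate pH 8.2 with 1 μM mofegiline and 0.5 mM pargyline; putrescine at twice KM (e.g. 20 mM for LOX) with Amplex Red/HRP. Fluorescence (ex 565/em 590 nm) read kinetically over 30 min at 37–45 °C; IC50 from slopes.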

[2] = target: Human LOXL2 (Homo sapiens (Human), UniProt Q9Y4K0); assay: LOXL2 inhibition, peroxidase-coupled Amplex Red amine oxidase assay; details: 30 min preincubation at 37° C., putrescine substrate
Chain of Human LOXL2 (Q9Y4K0 26-774): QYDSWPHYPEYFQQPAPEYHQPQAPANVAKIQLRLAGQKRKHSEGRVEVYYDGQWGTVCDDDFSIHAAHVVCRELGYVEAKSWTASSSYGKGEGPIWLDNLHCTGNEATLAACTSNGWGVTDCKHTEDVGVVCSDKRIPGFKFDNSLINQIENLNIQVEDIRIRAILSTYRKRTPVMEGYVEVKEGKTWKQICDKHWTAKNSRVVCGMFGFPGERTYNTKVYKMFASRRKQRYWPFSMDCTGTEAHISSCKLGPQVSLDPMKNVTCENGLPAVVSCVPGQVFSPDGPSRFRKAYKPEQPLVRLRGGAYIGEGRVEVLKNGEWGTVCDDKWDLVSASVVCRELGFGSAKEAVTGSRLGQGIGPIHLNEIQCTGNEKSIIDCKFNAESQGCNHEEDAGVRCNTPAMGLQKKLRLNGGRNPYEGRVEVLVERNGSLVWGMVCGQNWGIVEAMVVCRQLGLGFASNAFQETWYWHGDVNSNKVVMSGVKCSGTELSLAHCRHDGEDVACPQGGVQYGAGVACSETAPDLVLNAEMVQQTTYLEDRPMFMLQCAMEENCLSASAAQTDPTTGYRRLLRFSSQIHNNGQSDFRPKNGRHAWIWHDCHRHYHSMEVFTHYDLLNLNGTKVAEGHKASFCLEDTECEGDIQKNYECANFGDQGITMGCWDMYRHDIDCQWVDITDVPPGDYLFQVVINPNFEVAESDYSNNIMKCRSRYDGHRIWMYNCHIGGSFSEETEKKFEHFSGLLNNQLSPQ
Outline: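 Enzyme in 1.2 M urea, 50 mM sodium borate pH 8.2 with 1 μM mofegiline and 0.5 mM pargyline, preincubated 30 min at 37° C with compound (11-point CRC). Putrescine at twice KM (10 mM for LOXL2) with Amplex Red/HRP; fluorescence (ex 565, em 590) read kinetically 30 min; IC50 from slopes.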

[3] = target: human recombinant SSAO/VAP-1 (Homo sapiens (Human), UniProt Q16853); assay: Inhibition of human recombinant SSAO/VAP-1 amine oxidase activity; details: 30 min preincubation at 37° C., 600 μM benzylamine
Chain of human recombinant SSAO/VAP-1 (Q16853 34-763): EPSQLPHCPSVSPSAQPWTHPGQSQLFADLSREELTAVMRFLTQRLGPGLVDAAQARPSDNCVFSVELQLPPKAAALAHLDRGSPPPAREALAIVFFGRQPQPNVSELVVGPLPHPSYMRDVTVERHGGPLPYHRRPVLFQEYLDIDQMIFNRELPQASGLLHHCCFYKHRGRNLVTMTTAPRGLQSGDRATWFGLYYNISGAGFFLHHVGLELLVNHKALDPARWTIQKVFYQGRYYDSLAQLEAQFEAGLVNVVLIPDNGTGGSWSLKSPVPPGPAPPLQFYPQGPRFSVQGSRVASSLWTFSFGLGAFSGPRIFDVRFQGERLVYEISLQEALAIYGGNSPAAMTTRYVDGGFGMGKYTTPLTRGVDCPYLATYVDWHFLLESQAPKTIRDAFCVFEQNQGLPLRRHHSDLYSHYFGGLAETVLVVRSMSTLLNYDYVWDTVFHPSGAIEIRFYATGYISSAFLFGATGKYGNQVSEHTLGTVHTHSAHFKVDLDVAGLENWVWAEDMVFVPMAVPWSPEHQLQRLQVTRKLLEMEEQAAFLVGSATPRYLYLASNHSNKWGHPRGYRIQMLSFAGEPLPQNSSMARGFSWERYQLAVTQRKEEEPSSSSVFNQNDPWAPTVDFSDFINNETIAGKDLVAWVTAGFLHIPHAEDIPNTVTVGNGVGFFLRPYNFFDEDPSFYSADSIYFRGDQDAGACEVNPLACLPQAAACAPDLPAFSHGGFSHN
Outline: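 Purified SSAO/VAP-1 (residues 34-763, expressed in CHO Lec 8 cells; 0.25 μg/mL) preincubated 30 min at 37° C with compound in 0.1 M sodium phosphate pH 7.4. Reaction mix of 600 μM benzylamine, 120 μM Amplex Red and 1.5 U/mL HRP added; fluorescence (ex 565/em 590 nm) read every 2.5 min for 30 min; IC50 from kinetic slopes over 4-11 point curves.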

[4] = target: Recombinant human MAO-B (Homo sapiens (Human), UniProt P27338); assay: Inhibition of human recombinant MAO-B; details: benzylamine 100 μM
Chain of Recombinant human MAO-B (P27338 whole entry): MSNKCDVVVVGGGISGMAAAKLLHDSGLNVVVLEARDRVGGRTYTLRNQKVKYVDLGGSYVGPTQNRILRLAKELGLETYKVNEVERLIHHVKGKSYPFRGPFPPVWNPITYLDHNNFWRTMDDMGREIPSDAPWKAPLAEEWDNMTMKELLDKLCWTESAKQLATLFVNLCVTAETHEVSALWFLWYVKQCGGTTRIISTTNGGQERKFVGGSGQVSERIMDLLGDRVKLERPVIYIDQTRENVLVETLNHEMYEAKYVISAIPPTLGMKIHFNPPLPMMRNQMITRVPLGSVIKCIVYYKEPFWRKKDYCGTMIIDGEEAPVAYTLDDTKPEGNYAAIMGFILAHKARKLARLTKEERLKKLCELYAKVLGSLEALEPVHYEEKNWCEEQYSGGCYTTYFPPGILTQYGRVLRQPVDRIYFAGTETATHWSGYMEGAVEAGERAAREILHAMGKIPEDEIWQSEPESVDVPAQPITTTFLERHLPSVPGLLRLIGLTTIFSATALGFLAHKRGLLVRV
Outline: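 Recombinant human MAO-B used as enzyme source (0.06 mg/mL, stated concentration). Run as for the human SSAO/VAP-1 assay, except benzylamine substrate at 100 μM.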

Chain of Bovine LOX (P33072 170-418): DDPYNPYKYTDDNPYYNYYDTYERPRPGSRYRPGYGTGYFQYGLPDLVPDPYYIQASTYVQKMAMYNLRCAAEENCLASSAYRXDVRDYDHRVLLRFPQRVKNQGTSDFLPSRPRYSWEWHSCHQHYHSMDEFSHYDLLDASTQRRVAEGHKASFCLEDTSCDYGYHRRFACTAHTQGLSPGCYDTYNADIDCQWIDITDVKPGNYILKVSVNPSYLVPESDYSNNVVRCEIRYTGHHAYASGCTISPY

Compound | IC50 [1] [nM] | IC50 [2] [nM] | IC50 [3] [nM] | IC50 [4] [nM]
Cc1c(-c2cccc(N(C)S(C)(=O)=O)c2)c2cc(C(=O)N(C)C)ccc2n1C/C(F)=C/CN [Compound 39, (Z)-1-(4-amino-2-fluorobut-2-en-1-yl)-N,N,2-trimethyl-3-(3-(N-methylmethylsulfonamido)phenyl)-1H-indole-5-carboxamide] | > 300 | < 300 | > 3000 | > 3000
Cc1c(-c2cccc(S(=O)(=O)N(C)C)c2)c2ccc(C(N)=O)cc2n1C/C(F)=C/CN [Compound 11, (Z)-1-(4-amino-2-fluorobut-2-en-1-yl)-3-(3-(N,N-dimethylsulfamoyl)phenyl)-2-methyl-1H-indole-6-carboxamide] | > 300 | < 300 | > 3000 | > 3000
CCOC(=O)c1ccc2c(n1)c(-c1cccc(S(=O)(=O)N(C)C)c1)c(C)n2C/C(F)=C/CN [Compound 42, (Z)-ethyl 1-(4-amino-2-fluorobut-2-en-1-yl)-3-(3-(N,N-dimethylsulfamoyl)phenyl-2-methyl-1H-pyrrolo[3,2-b]pyridine-5-carboxylate, Dihydrochloride] | > 300 | < 300 | > 3000 | > 3000
Cc1c(-c2cncc(S(=O)(=O)N(C)C)c2)c2cc(F)ccc2n1C/C(F)=C/CN [Compound 71, (Z)-5-(1-(4-amino-2-fluorobut-2-en-1-yl)-5-fluoro-2-methyl-1H-indol-3-yl)-N,N-dimethylpyridine-3-sulfonamide] | > 300 | < 300 | > 3000 | > 3000
Cc1c(-c2cccc(S(=O)(=O)N(C)C)c2)c2nc(C(=O)NC(C)C)ccc2n1C/C(F)=C/CN [Compound 45, (Z)-1-(4-amino-2-fluorobut-2-en-1-yl)-3-(3-(N,N-dimethylsulfamoyl)phenyl)-N-isopropyl-2-methyl-1H-pyrrolo[3,2-b]pyridine-5-carboxamide] | > 300 | < 300 | > 3000 | > 3000
Cc1c(-c2c(C)n(C/C(F)=C/CN)c3ccc(C(=O)O)cc23)cccc1S(=O)(=O)N(C)C [Compound 13, (Z)-1-(4-amino-2-fluorobut-2-en-1-yl)-3-(3-(N,N-dimethylsulfamoyl)-2-methylphenyl)-2-methyl-1H-indole-5-carboxylic acid] | > 300 | < 300 | > 3000 | > 3000
Cc1c(-c2cncc(S(=O)(=O)N(C)C)c2)c2ccc(Cl)cc2n1C/C(F)=C/CN [Compound 67, (Z)-5-(1-(4-amino-2-fluorobut-2-en-l-yl)-6-chloro-2-methyl-1H-indol-3-yl)-N,N-dimethylpyridine-3-sulfonamide, Dihydrochloride] | > 300 | < 300 | > 3000 | > 3000
CCOC(=O)c1ccc2c(c1)c(-c1cccc(Cl)c1)c(C)n2C/C(F)=C/CN [Compound 27, ethyl (Z)-1-(4-amino-2-fluorobut-2-en-1-yl)-3-(3-chlorophenyl)-2-methyl-1H-indole-5-carboxylate] | > 300 | < 300 | > 3000 | > 3000
Cc1c(-c2cccc(S(=O)(=O)N(C)C)c2)c2cc(-c3ncon3)ccc2n1C/C(F)=C/CN [Compound 55, (Z)-3-(1-(4-amino-2-fluorobut-2-en-1-yl)-2-methyl-5-(1,2,4-oxadiazol-3-yl)-1H-indol-3-yl)-N,N-dimethylbenzenesulfonamide] | > 300 | < 300 | > 3000 | > 3000
COC(=O)c1ccc2c(c1)c(-c1cccc(S(=O)(=O)N(C)C)c1)c(C)n2C/C(F)=C/CN [Compound 5, Hydrochloride] | > 300 | < 300 | > 3000 | > 3000
Cc1c(-c2ccncc2)c2cc(C(=O)NC(C)(C)C)ccc2n1C/C(F)=C/CN [Compound 91, (Z)-1-(4-amino-2-fluorobut-2-en-1-yl)-N-(tert-butyl)-2-methyl-3-(pyridin-4-yl)-1H-indole-5-carboxamide] | > 300 | < 300 | > 3000 | > 3000
Cc1ccc2c(n1)c(-c1cccc(S(=O)(=O)N(C)C)c1)c(C)n2C/C(F)=C/CN [Compound 107, (Z)-3-(1-(4-amino-2-fluorobut-2-en-1-yl)-2,5-dimethyl-1H-pyrrolo[3,2-b]pyridin-3-yl)-N,N-dimethylbenzenesulfonamide Dihydrochloride] | > 300 | < 300 | > 3000 | > 3000
Cc1c(-c2cncc(S(=O)(=O)N(C)C)c2)c2cc(Cl)cnc2n1C/C(F)=C/CN [Compound 73, (Z)-5-(1-(4-amino-2-fluorobut-2-en-1-yl)-5-chloro-2-methyl-1H-pyrrolo[2,3-b]pyridin-3-yl)-N,N-dimethylpyridine-3-sulfonamide] | > 300 | < 300 | > 3000 | > 3000
Cc1ccc(S(=O)(=O)N(C)C)cc1-c1c(C)n(C/C(F)=C/CN)c2c(F)cc(Cl)cc12 [Compound 82, (Z)-3-(1-(4-amino-2-fluorobut-2-en-1-yl)-5-chloro-7-fluoro-2-methyl-1H-indol-3-yl)-N,N,4-trimethylbenzenesulfonamide] | > 300 | < 300 | > 3000 | > 3000
Cc1c(-c2ccncc2)c2cc(S(=O)(=O)N(C)C)ccc2n1C/C(F)=C/CN [Compound 81, (Z)-1-(4-amino-2-fluorobut-2-en-1-yl)-N,N,2-trimethyl-3-(pyridin-4-yl)-1H-indole-5-sulfonamide] | > 300 | < 300 | > 3000 | > 3000
Cc1c(-c2cncc(S(N)(=O)=O)c2)c2cc(Cl)ccc2n1C/C(F)=C/CN [Compound 83, (Z)-5-(1-(4-amino-2-fluorobut-2-en-1-yl)-5-chloro-2-methyl-1H-indol-3-yl)pyridine-3-sulfonamide] | > 300 | < 300 | > 3000 | > 3000
Cc1c(-c2cncc(S(=O)(=O)N(C)C)c2)c2cc(C(=O)O)ccc2n1C/C(F)=C/CN [Compound 40, (Z)-1-(4-amino-2-fluorobut-2-en-1-yl)-3-(5-(N,N-dimethylsulfamoyl)pyridin-3-yl)-2-methyl-1H-indole-5-carboxylic acid] | > 300 | < 300 | > 3000 | > 3000
COc1ccc2c(n1)c(-c1cccc(SC)c1)c(C)n2C/C(F)=C/CN [Compound 68, (Z)-3-fluoro-4-(5-methoxy-2-methyl-3-(3-(methylthio)phenyl)-1H-pyrrolo[3,2-b]pyridin-1-yl)but-2-en-1-amine Dihydrochloride] | > 300 | < 300 | > 3000 | > 3000
Cc1c(-c2cncc(S(=O)(=O)N(C)C)c2)c2cc(C3CC3)ccc2n1C/C(F)=C/CN [Compound 79, (Z)-5-(1-(4-amino-2-fluorobut-2-en-1-yl)-5-cyclopropyl-2-methyl-1H-indol-3-yl)-N,N-dimethylpyridine-3-sulfonamide] | > 300 | < 300 | > 3000 | > 3000
Cc1c(-c2cccc(S(C)(=O)=O)c2)c2cc(C(=O)N(C)C)ccc2n1C/C(F)=C/CN [Compound 50, (Z)-1-(4-amino-2-fluorobut-2-en-1-yl)-N,N,2-trimethyl-3-(3-(methylsulfonyl)phenyl)-1H-indole-5-carboxamide] | > 300 | < 300 | > 3000 | > 3000
Cc1c(-c2cccc(S(C)(=O)=O)c2)c2cc(C(=O)O)ccc2n1C/C(F)=C/CN [Compound 14, (Z)-1-(4-amino-2-fluorobut-2-en-1-yl)-2-methyl-3-(3-(methylsulfonyl)phenyl)-1H-indole-5-carboxylic acid] | > 300 | < 300 | > 3000 | > 3000
Cc1c(-c2cccc(S(N)(=O)=O)c2)c2cc(C(=O)N(C)C)ccc2n1C/C(F)=C/CN [Compound 54, (Z)-1-(4-amino-2-fluorobut-2-en-1-yl)-N,N,2-trimethyl-3-(3-sulfamoylphenyl)-1H-indole-5-carboxamide] | > 300 | < 300 | > 3000 | > 3000
Cc1c(-c2ccc(F)cc2)c2cc(C(=O)O)ccc2n1C/C(F)=C/CN [Compound 23, (Z)-1-(4-amino-2-fluorobut-2-en-1-yl)-3-(4-fluorophenyl)-2-methyl-1H-indole-5-carboxylic acid] | > 300 | < 300 | > 3000 | > 3000
Cc1c(-c2ccccc2)c2cc(S(C)(=O)=O)ccc2n1C/C(F)=C/CN [Compound 87, (Z)-3-fluoro-4-(2-methyl-5-(methylsulfonyl)-3-phenyl-1H-indol-1-yl)but-2-en-1-amine] | > 300 | < 300 | > 3000 | > 3000
